Columns and labels:
Type in all cases: in vivo
[1] = test system: barnyard grass (Echinochloa crus-galli Beauv.); assay: Test Example 2: herbicidal effect on paddy field weeds after emergence; conditions: Dosage 5 kg/ha; one-leaved stage; 21 days after treatment
Experimental: (§1) Test for Herbicidal Effect on Paddy Field Weeds After Emergence. Soil was filled into 1/10000 are pots and brought into a state of paddy field, in which seeds of barnyard grass (Echinochloa crus-galli Beauv.), bulrush (Scirpus juncoides Roxb.) and monochoria (Monochoria vaginalis Presl) were made to reach one-leaved stage. The soil in the pots were treated with a solution containing a predetermined dosage of a chemical agent comprising a compound of the present invention listed in Tables 1 to 14. Twenty one days after the treatment, the herbicidal effect was investigated and the result was compared with that in untreated plot to calculate the weed-controlling rate, and the herbicidal effect was judged according to the same criterion as in Test Example 1.

[2] = test system: bulrush (Scirpus juncoides Roxb.); assay: as above; conditions: Dosage 5 kg/ha; one-leaved stage; 21 days after treatment
Experimental: as §1

[3] = test system: monochoria (Monochoria vaginalis Presl); assay: as above; conditions: Dosage 5 kg/ha; one-leaved stage; 21 days after treatment
Experimental: as §1

[4] = test system: barnyard grass (Echinochloa crus-galli Beauv.); assay: Test Example 1: herbicidal effect on paddy field weeds before emergence; conditions: Dosage 5 kg/ha
Experimental: as §1, with “Before Emergence” for “After Emergence.”, “Beauv.) and” for “Beauv.),”, “Roxb.)” for “Roxb.) and monochoria (Monochoria vaginalis Presl)”, “be before germination.” for “reach one-leaved stage.”, “investigated,” for “investigated and”, “following criterion: […]” for “same criterion as in Test Example 1.”

[5] = test system: bulrush (Scirpus juncoides Roxb.); assay: as above; conditions: Dosage 5 kg/ha
Experimental: as §1, with “Before Emergence” for “After Emergence.”, “Beauv.) and” for “Beauv.),”, “Roxb.)” for “Roxb.) and monochoria (Monochoria vaginalis Presl)”, “be before germination.” for “reach one-leaved stage.”, “investigated,” for “investigated and”, “following criterion: […]” for “same criterion as in Test Example 1.”

[6] = test system: soybean plant (So); assay: Test Example 3: phytotoxicity to upland crop plants, treatment before emergence; conditions: dosage 5 kg/ha
Experimental: (§2) Herbicidal Effect on Upland Weeds Before Emergence […] Then, a liquid preparation of an agent comprising a prescribed concentration of a compound of the present invention (the compounds listed in Tables 1-14) as active ingredient was sprayed. Fourteen days after the treatment, the herbicidal effect was investigated, from which weed-killing rate was calculated in the same manner as in Test Example 1, and the herbicidal effect was judged. At the same time, phytotoxicity to soybean plant and wheat was investigated and judged according to the criterion mentioned below.

[7] = test system: wheat (Wh); assay: as above; conditions: dosage 5 kg/ha
Experimental: as §2

[8] = test system: barnyard grass (Echinochloa crus-galli Beauv.), Ec; assay: Test Example 4: herbicidal effect on upland weeds after emergence; conditions: dosage 5 kg/ha; sprayed after emergence; judged 14 days after treatment
Description: (§3) Herbicidal Effect on Upland Weeds After Emergence Polyethylene-made vats having a size of 10 cm (length)×20 cm (width)×5 cm (height) were filled with soil, sown with seeds of the following noxious upland weeds and with seeds of soybean plant and wheat as upland crop plants, and then covered with soil. The plants were made to grow up until they reached the leaf-stages mentioned below, after which an agent comprising a prescribed concentration of a compound of the present invention (listed in Tables 1 to 14) as active ingredient was sprayed. Fourteen days after the treatment, the herbicidal effect was investigated, from which weed-killing rate was calculated in the same manner as in Test Example 1 and the results were judged. […] Sample weeds, their leaf stages, and leaf stages of soybean plant and wheat were as follows: [table]

[9] = test system: cocklebur (Xanthium strumarium L.), Xs; assay: as above; conditions: dosage 5 kg/ha; sprayed after emergence; judged 14 days after treatment
Description: as §3

[10] = test system: cleavers (Galium aparine L.), Ga; assay: as above; conditions: dosage 5 kg/ha; sprayed after emergence; judged 14 days after treatment
Description: as §3

[11] = test system: bird's eye speedwell (Veronica persica Poir.), Vp; assay: as above; conditions: dosage 5 kg/ha; sprayed after emergence; judged 14 days after treatment
Description: as §3

[12] = test system: velvetleaf (Abutilon theophtasti L.), At; assay: as above; conditions: dosage 5 kg/ha; sprayed after emergence; judged 14 days after treatment
Description: as §3

[13] = test system: forxtail grass (Alopecurus aequalis var. amurensis Ohwi), Am; assay: as above; conditions: dosage 5 kg/ha; sprayed after emergence; judged 14 days after treatment
Description: as §3

[14] = test system: wheat; assay: Test Example 4: phytotoxicity to upland crop plants, treatment after emergence; conditions: dosage 5 kg/ha, sprayed after emergence, judged 14 days after treatment
Description: as §3

[15] = test system: soybean plant; assay: as above; conditions: dosage 5 kg/ha, sprayed after emergence, judged 14 days after treatment
Description: as §3

[16] = test system: barnyard grass (Echinochloa crus-galli Beauv.), Ec; assay: Test Example 3: herbicidal effect on upland weeds before emergence; conditions: dosage 5 kg/ha
Experimental: as §2, with “judged.” for “judged. At the same time, phytotoxicity to soybean plant and wheat was investigated and judged according to the criterion mentioned below.”

[17] = test system: cocklebur (Xanthium strumarium L.), Xs; assay: as above; conditions: dosage 5 kg/ha
Experimental: as §2, with “judged.” for “judged. At the same time, phytotoxicity to soybean plant and wheat was investigated and judged according to the criterion mentioned below.”

[18] = test system: cleavers (Galium aparine L.), Ga; assay: as above; conditions: dosage 5 kg/ha
Experimental: as §2, with “judged.” for “judged. At the same time, phytotoxicity to soybean plant and wheat was investigated and judged according to the criterion mentioned below.”

[19] = test system: bird's eye speedwell (Veronica persica Poir.), Vp; assay: as above; conditions: dosage 5 kg/ha
Experimental: as §2, with “judged.” for “judged. At the same time, phytotoxicity to soybean plant and wheat was investigated and judged according to the criterion mentioned below.”

[20] = test system: velvetleaf (Abutilon theophtasti L.), At; assay: as above; conditions: dosage 5 kg/ha
Experimental: as §2, with “judged.” for “judged. At the same time, phytotoxicity to soybean plant and wheat was investigated and judged according to the criterion mentioned below.”

[21] = test system: forxtail grass (Alopecurus aequalis var. amurensis Ohwi), Am; assay: as above; conditions: foxtail grass, dosage 5 kg/ha
Experimental: as §2, with “judged.” for “judged. At the same time, phytotoxicity to soybean plant and wheat was investigated and judged according to the criterion mentioned below.”

SMILES | Post-emergence treatment Barnyard grass (herbicidal effect) [1] | Post-emergence treatment Bulrush (herbicidal effect) [2] | Post-emergence treatment Monochoria (herbicidal effect) [3] | Pre-emergence treatment Barnyard grass (herbicidal effect) [4] | Pre-emergence treatment Bulrush (herbicidal effect) [5] | Phytotoxicity So [6] | Phytotoxicity Wh [7] | Herbicidal effect Ec [8] | Herbicidal effect Xs [9] | Herbicidal effect Ga [10] | Herbicidal effect Vp [11] | Herbicidal effect At [12] | Herbicidal effect Am [13] | Phytotoxicity Wh [14] | Phytotoxicity So [15] | Herbicidal effect Ec [16] | Herbicidal effect Xs [17] | Herbicidal effect Ga [18] | Herbicidal effect Vp [19] | Herbicidal effect At [20] | further results
CCc1ccc(Cl)c(CC)c1NC(=O)c1cc2ccccc2nc1C(=O)NC [359-1] | 5 (Weed-killing rate is 100%.) | 5 (Weed-killing rate is 100%.) | 5 (Weed-killing rate is 100%.) | 5 (Weed-killing rate is 100%.) | 5 (Weed-killing rate is 100%.) | 0 (Crop-killing rate is 0-20% (No Phytotoxicity).) | 0 (Crop-killing rate is 0-20% (No Phytotoxicity).) | 5 (Weed-killing rate is 100%.) | 5 (Weed-killing rate is 100%.) | 5 (Weed-killing rate is 100%.) | 5 (Weed-killing rate is 100%.) | 5 (Weed-killing rate is 100%.) | 5 (Weed-killing rate is 100%.) | 2 (Crop-killing rate is 40-69%.) | 3 (Crop-killing rate is 70-89%.) | 5 (Weed-killing rate is 100%.) | 5 (Weed-killing rate is 100%.) | 5 (Weed-killing rate is 100%.) | 5 (Weed-killing rate is 100%.) | 5 (Weed-killing rate is 100%.) | Herbicidal effect Am [21]: 5 (Weed-killing rate is 100%.)
CCNC(=O)c1nc2ccccc2cc1C(=O)Nc1c(CC)ccc(Cl)c1CC [359-2] | 5 (Weed-killing rate is 100%.) | 5 (Weed-killing rate is 100%.) | 5 (Weed-killing rate is 100%.) | 5 (Weed-killing rate is 100%.) | 5 (Weed-killing rate is 100%.) | 1 (Crop-killing rate is 1-39%.) | 0 (Crop-killing rate is 0-20% (No Phytotoxicity).) | 5 (Weed-killing rate is 100%.) | 5 (Weed-killing rate is 100%.) | 5 (Weed-killing rate is 100%.) | 5 (Weed-killing rate is 100%.) | 5 (Weed-killing rate is 100%.) | 5 (Weed-killing rate is 100%.) | 3 (Crop-killing rate is 70-89%.) | 4 (Crop-killing rate is 90-99%.) | 5 (Weed-killing rate is 100%.) | 5 (Weed-killing rate is 100%.) | 5 (Weed-killing rate is 100%.) | 5 (Weed-killing rate is 100%.) | 5 (Weed-killing rate is 100%.) | Herbicidal effect Am [21]: 5 (Weed-killing rate is 100%.)
CCCNC(=O)c1nc2ccccc2cc1C(=O)Nc1c(CC)ccc(Cl)c1CC [359-3] | 5 (Weed-killing rate is 100%.) | 5 (Weed-killing rate is 100%.) | 5 (Weed-killing rate is 100%.) | 5 (Weed-killing rate is 100%.) | 5 (Weed-killing rate is 100%.) | 0 (Crop-killing rate is 0-20% (No Phytotoxicity).) | 0 (Crop-killing rate is 0-20% (No Phytotoxicity).) | 5 (Weed-killing rate is 100%.) | 5 (Weed-killing rate is 100%.) | 5 (Weed-killing rate is 100%.) | 5 (Weed-killing rate is 100%.) | 5 (Weed-killing rate is 100%.) | 5 (Weed-killing rate is 100%.) | 2 (Crop-killing rate is 40-69%.) | 3 (Crop-killing rate is 70-89%.) | 5 (Weed-killing rate is 100%.) | 5 (Weed-killing rate is 100%.) | 5 (Weed-killing rate is 100%.) | 5 (Weed-killing rate is 100%.) | 5 (Weed-killing rate is 100%.) | Herbicidal effect Am [21]: 5 (Weed-killing rate is 100%.)
CCc1ccc(Cl)c(CC)c1NC(=O)c1cc2ccccc2nc1C(=O)NC(C)(C)C [359-4] | 5 (Weed-killing rate is 100%.) | 5 (Weed-killing rate is 100%.) | 5 (Weed-killing rate is 100%.) | 5 (Weed-killing rate is 100%.) | 5 (Weed-killing rate is 100%.) | 2 (Crop-killing rate is 40-69%.) | 0 (Crop-killing rate is 0-20% (No Phytotoxicity).) | 5 (Weed-killing rate is 100%.) | 5 (Weed-killing rate is 100%.) | 5 (Weed-killing rate is 100%.) | 5 (Weed-killing rate is 100%.) | 5 (Weed-killing rate is 100%.) | 5 (Weed-killing rate is 100%.) | 2 (Crop-killing rate is 40-69%.) | 4 (Crop-killing rate is 90-99%.) | 5 (Weed-killing rate is 100%.) | 5 (Weed-killing rate is 100%.) | 5 (Weed-killing rate is 100%.) | 5 (Weed-killing rate is 100%.) | 5 (Weed-killing rate is 100%.) | Herbicidal effect Am [21]: 5 (Weed-killing rate is 100%.)
CCc1ccc(Cl)c(CC)c1NC(=O)c1cc2ccccc2nc1C(=O)NCC(C)(C)C [359-5] | 5 (Weed-killing rate is 100%.) | 5 (Weed-killing rate is 100%.) | 5 (Weed-killing rate is 100%.) | 5 (Weed-killing rate is 100%.) | 5 (Weed-killing rate is 100%.) | 0 (Crop-killing rate is 0-20% (No Phytotoxicity).) | 0 (Crop-killing rate is 0-20% (No Phytotoxicity).) | 5 (Weed-killing rate is 100%.) | 5 (Weed-killing rate is 100%.) | 5 (Weed-killing rate is 100%.) | 5 (Weed-killing rate is 100%.) | 5 (Weed-killing rate is 100%.) | 5 (Weed-killing rate is 100%.) | 3 (Crop-killing rate is 70-89%.) | 2 (Crop-killing rate is 40-69%.) | 5 (Weed-killing rate is 100%.) | 5 (Weed-killing rate is 100%.) | 5 (Weed-killing rate is 100%.) | 5 (Weed-killing rate is 100%.) | 5 (Weed-killing rate is 100%.) | Herbicidal effect Am [21]: 5 (Weed-killing rate is 100%.)
